In article PMC12827894, “Structure-guided design of picomolar-level macrocyclic TRPC5 channel inhibitors with antidepressant activity” (Acta Pharmaceutica Sinica. B, 2025):

Tests used:
β2 = molecular target: T1, β2 (Homo sapiens, UniProt P07550); experiment: SafetyOne44 panel: β2; type: cell-based
T1 construct: purchased ICE Bioscience ICESTP™ SafetyOne44 Panel

CCK1 = molecular target: T2, CCK1 (Homo sapiens, UniProt P32238); experiment: SafetyOne44 panel: CCK1; type: cell-based; conditions: 10 μmol/L
T2 construct: purchased ICE Bioscience ICESTP™ SafetyOne44 Panel
T2 sequence (P32238 1-428): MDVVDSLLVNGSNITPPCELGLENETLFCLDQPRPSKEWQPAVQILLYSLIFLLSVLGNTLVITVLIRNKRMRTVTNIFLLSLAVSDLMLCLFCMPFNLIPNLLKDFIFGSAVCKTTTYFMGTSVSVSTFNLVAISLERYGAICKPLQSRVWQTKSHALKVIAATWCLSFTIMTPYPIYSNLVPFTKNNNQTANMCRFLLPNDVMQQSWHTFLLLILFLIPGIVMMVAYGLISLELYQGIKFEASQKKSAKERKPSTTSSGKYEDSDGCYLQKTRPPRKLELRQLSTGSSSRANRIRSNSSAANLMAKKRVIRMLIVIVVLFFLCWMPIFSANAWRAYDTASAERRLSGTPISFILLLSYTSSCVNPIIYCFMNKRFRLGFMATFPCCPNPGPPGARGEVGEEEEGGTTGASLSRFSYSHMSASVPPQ

H1 = H1 (Homo sapiens, UniProt P35367); experiment: cell-based; conditions: read-out: Antagonist JDIC-127 @10 μmol/L
Nav1.5 = molecular target: T3, Nav1.5 (Homo sapiens, UniProt Q14524); experiment: SafetyOne44 panel ion channels: Nav1.5; type: cell-based; conditions: Nav1.5, 5 μmol/L
T3 construct: ICE Bioscience ICESTP SafetyOne44 Panel

hERG [1] = molecular target: T4, hERG (Homo sapiens, UniProt Q12809); conditions: 10 μmol/L, patch-clamp
T4 sequence (Q12809 whole entry): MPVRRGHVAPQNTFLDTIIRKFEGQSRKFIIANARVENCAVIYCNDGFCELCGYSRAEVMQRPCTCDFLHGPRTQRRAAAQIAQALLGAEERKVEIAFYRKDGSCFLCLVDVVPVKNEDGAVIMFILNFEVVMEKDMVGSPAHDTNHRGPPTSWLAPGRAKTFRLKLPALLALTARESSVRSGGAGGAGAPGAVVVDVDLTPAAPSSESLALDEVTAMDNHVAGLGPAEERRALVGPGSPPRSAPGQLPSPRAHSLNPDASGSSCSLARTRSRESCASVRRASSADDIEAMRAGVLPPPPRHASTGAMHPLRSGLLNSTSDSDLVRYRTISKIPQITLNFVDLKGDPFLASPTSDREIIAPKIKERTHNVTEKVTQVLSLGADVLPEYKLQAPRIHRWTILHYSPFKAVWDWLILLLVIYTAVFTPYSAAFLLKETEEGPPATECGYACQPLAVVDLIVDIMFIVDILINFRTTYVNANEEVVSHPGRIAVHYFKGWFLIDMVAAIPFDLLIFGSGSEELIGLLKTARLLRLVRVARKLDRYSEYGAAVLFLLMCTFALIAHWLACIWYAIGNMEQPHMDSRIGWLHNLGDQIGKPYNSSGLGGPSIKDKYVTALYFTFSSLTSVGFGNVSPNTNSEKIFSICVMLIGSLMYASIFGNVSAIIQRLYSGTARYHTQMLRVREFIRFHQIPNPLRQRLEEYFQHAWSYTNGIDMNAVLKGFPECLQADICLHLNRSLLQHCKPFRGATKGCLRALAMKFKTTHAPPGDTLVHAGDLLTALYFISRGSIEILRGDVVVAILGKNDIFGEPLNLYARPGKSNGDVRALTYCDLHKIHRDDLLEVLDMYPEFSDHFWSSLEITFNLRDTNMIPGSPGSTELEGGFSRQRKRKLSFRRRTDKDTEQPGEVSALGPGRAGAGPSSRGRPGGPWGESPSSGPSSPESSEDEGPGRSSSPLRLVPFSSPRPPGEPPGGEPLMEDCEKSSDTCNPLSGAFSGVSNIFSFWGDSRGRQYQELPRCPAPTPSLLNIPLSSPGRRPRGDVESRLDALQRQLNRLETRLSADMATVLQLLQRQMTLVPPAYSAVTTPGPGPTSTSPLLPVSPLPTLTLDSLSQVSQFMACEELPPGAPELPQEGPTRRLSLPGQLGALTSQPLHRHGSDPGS

[2] = tested on: 44 clinically safety-related targets
DAT = molecular target: T5, DAT (Homo sapiens, UniProt Q01959); experiment: SafetyOne44 panel: DAT; type: cell-based; conditions: 10 μmol/L, read-out: Antagonist JDIC-127 @10 μmol/L
T5 construct: purchased ICE Bioscience ICESTP™ SafetyOne44 Panel

H2 = molecular target: T6, H2 (Homo sapiens, UniProt P25021); experiment: SafetyOne44 panel: H2; type: cell-based; conditions: 10 μmol/L
T6 construct: purchased ICE Bioscience ICESTP™ SafetyOne44 Panel
T6 sequence (P25021 whole entry): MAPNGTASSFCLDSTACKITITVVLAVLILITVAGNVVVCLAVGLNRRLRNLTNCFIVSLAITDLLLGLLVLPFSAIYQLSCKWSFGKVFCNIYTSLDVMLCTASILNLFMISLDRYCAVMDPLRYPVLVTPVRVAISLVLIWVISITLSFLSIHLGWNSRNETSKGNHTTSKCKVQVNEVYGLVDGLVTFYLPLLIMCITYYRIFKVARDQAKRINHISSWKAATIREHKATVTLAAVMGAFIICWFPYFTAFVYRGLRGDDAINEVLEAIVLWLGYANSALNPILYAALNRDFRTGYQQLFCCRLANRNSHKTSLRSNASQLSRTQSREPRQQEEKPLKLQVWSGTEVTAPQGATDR

μOR = molecular target: T7, μOR (Homo sapiens, UniProt P35372); experiment: cell-based; conditions: antagonist mode, 10 μmol/L, read-out: Antagonist JDIC-127 @10 μmol/L
T7 construct: purchased ICE Bioscience ICESTP™ SafetyOne44 Panel

IKs = molecular target: T8, IKs (Homo sapiens, UniProt P51787); experiment: SafetyOne44 panel ion channels: IKs; type: cell-based; conditions: 5 μmol/L
T8 construct: ICE Bioscience ICESTP SafetyOne44 Panel

nAChRα4β2 = molecular target: T9, nAChRα4β2 (Homo sapiens, UniProt P17787+P43681); experiment: SafetyOne44 panel ion channels: nAChRα4β2; type: cell-based; conditions: 5 μmol/L
T9 construct: ICE Bioscience ICESTP SafetyOne44 Panel
T9 sequence (P43681 29-627 limits assumed): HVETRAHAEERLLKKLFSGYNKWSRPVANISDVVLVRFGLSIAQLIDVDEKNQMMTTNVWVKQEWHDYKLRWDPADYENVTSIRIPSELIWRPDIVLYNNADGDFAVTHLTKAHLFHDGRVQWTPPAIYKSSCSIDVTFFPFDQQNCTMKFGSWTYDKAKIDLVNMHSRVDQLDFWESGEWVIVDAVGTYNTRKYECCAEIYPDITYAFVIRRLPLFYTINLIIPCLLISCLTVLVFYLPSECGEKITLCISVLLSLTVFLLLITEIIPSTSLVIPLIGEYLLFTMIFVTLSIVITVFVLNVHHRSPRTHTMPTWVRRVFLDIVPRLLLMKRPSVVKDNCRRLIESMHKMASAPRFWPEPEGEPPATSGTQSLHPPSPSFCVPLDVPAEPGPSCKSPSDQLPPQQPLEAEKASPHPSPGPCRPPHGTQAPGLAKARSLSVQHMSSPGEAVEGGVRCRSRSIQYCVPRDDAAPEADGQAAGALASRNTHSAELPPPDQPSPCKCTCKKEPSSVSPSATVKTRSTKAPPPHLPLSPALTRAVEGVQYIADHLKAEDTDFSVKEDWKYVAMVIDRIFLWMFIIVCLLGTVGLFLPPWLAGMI
T9 sequence (P17787 26-502): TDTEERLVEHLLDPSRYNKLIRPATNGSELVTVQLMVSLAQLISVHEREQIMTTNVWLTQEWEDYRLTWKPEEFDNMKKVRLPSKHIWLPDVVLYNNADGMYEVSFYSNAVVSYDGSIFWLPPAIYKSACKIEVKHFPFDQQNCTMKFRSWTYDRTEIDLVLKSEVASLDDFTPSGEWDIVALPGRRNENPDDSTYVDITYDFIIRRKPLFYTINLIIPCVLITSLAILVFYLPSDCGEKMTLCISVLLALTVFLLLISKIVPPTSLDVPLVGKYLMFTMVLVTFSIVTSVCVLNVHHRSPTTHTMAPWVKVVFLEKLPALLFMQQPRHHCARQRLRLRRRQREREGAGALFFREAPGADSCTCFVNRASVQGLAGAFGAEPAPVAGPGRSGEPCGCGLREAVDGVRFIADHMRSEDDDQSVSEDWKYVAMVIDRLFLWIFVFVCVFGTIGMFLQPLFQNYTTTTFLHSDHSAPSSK

α1A = α1A (Homo sapiens, UniProt P35348); experiment: cell-based; type: cell-based
hERG [3] = molecular target: T4, hERG; type: cell-based; design: purchased ICE Bioscience ICESTP SafetyOne44 Panel
5-HT1A = molecular target: T10, 5-HT1A (Homo sapiens, UniProt P08908); experiment: cell-based; type: cell-based
T10 construct: purchased ICE Bioscience ICESTP SafetyOne44 Panel
T10 sequence (P08908 whole entry): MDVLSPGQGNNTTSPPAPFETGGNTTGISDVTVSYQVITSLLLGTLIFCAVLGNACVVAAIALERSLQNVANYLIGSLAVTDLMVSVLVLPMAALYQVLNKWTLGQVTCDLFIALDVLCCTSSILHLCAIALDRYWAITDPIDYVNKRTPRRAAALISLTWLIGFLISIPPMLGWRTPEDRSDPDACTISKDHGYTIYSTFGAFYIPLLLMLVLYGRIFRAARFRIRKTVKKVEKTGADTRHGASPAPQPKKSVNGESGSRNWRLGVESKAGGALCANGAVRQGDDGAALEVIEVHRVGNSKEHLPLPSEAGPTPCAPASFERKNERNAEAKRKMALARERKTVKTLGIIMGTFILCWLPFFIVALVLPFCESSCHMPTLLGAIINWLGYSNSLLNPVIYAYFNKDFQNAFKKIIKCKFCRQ

5-HTT = molecular target: T11, 5-HTT (Homo sapiens, UniProt P31645); experiment: SafetyOne44 panel: 5-HTT; type: cell-based; conditions: 10 μmol/L, read-out: Antagonist JDIC-127 @10 μmol/L
T11 construct: purchased ICE Bioscience ICESTP™ SafetyOne44 Panel

NR1/NR2B = molecular target: T12, NR1/NR2B (Homo sapiens, UniProt Q05586+Q13224); experiment: SafetyOne44 panel ion channels: NR1/NR2B; type: cell-based; conditions: NR1/NR2B, 5 μmol/L
T12 construct: ICE Bioscience ICESTP SafetyOne44 Panel
T12 sequence (Q13224 27-1484, other chains not shown): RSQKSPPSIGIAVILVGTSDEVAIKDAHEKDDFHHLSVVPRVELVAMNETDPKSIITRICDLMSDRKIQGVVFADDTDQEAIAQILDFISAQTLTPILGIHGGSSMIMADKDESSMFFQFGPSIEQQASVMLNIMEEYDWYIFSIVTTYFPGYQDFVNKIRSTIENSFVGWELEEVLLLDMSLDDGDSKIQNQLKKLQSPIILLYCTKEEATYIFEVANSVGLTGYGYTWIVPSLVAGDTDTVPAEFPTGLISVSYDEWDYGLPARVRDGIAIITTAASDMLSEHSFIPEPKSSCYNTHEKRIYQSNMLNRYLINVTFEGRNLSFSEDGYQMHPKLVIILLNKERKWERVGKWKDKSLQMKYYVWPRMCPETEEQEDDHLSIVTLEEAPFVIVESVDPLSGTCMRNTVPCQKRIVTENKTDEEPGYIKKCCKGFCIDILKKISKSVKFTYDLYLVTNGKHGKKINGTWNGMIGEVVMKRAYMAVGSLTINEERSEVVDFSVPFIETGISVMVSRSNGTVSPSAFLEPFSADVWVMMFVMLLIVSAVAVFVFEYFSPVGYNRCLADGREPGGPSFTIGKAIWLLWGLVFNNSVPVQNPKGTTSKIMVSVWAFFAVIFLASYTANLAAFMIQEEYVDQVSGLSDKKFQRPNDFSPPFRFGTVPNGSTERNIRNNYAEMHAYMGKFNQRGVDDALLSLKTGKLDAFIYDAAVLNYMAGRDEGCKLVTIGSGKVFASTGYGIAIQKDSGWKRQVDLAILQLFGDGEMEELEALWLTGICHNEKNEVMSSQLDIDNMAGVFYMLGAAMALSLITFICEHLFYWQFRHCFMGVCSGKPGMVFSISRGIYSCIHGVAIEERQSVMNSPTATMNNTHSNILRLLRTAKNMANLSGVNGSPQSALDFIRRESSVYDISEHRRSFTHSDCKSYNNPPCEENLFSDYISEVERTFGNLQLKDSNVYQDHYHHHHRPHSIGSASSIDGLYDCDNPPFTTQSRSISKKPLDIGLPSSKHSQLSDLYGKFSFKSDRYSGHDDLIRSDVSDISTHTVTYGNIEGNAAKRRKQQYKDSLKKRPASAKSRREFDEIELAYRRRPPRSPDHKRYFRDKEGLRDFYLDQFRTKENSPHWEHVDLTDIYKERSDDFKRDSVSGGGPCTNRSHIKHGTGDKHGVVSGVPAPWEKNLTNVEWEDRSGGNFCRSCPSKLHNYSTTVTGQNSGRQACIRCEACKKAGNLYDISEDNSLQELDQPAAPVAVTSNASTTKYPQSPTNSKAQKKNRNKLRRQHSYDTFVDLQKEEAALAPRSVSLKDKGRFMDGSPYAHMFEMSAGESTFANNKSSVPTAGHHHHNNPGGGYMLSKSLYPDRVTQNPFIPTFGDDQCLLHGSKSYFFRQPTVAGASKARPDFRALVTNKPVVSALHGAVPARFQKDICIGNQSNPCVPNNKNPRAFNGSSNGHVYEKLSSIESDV

TRPC5 Q573A = molecular target: T13, TRPC5 Q573A (Homo sapiens, UniProt Q9UL62, Q573A); experiment: Inhibition of TRPC5 mutant Q573A; type: cell-based; conditions: TRPC5 Q573A vs wild type
T13 construct: full-length wild-type or mutant TRPC5 was cloned into a pcDNA3.1 vector; expressed in transfected cells; host or cells: HEK293T

C57BL/6J mice = experiment: m-CPP-induced anxiety model, elevated plus maze; type: in vivo; conditions: 10 mg/kg p.o.
[4] = antagonist mode, 10 μmol/L, read-out: Antagonist JDIC-127 @10 μmol/L

T1 sequence (P07550 whole entry): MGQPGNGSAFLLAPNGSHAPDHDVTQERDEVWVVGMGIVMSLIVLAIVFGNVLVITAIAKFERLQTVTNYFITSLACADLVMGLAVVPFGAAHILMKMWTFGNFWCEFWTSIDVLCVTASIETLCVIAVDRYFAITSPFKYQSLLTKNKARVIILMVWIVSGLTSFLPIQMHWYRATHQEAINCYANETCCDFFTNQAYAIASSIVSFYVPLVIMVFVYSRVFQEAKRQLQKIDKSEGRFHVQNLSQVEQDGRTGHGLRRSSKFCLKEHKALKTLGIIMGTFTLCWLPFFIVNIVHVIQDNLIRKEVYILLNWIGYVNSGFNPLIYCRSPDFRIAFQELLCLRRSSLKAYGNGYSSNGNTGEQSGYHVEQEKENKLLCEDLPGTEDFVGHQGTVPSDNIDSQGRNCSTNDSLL

O=c1c2c3nc(n2Cc2ccc(Cl)cc2)Oc2ccc(F)c(c2)OCCCCCCn3c(=O)n1CCCO [JDIC-127]
Agonist JDIC-127 @10 μmol/L (β2; β2, agonist mode): –1.53% | inhibition at 10 µM (β2; β2, antagonist mode, 10 μmol/L, read-out: Antagonist JDIC-127 @10 μmol/L): 19.6% | Agonist JDIC-127 @10 μmol/L (CCK1; CCK1, agonist mode): –3.36% | inhibition at 10 µM (CCK1; CCK1, antagonist mode, read-out: Antagonist JDIC-127 @10 μmol/L): 6.16% | inhibition at 10 µM (H1): -3.39% | Antagonist JDIC-127 @5 μmol/L (Nav1.5): 2.98% | inhibition of hERG activity (hERG [1]): less than 33% | effect on the 44 safety targets [2]: no significant inhibitory or stimulatory effects | inhibition at 10 µM (DAT): -57.6% | Agonist JDIC-127 @10 μmol/L (H2; H2, agonist mode): –6.71% | inhibition at 10 µM (H2; H2, antagonist mode, read-out: Antagonist JDIC-127 @10 μmol/L): 5.6% | inhibition at 10 µM (μOR): -16.9% | Antagonist JDIC-127 @5 μmol/L (IKs): 22.77% | Agonist JDIC-127 @ 5 μmol/L (nAChRα4β2; nAChRα4β2, agonist mode): 0.97% | Antagonist JDIC-127 @5 μmol/L (nAChRα4β2; nAChRα4β2, antagonist mode): 2.92% | Agonist JDIC-127 @10 μmol/L (α1A; agonist mode): 0.76% | inhibition at 10 µM (α1A; [4]): -3.05% | Antagonist JDIC-127 @5 μmol/L (hERG [3]): 19.40% | Agonist JDIC-127 @10 μmol/L (5-HT1A; agonist mode): –1.59% | inhibition at 10 µM (5-HT1A; [4]): -6.7% | inhibition at 10 µM (5-HTT): -31.8% | Agonist JDIC-127 @ 5 μmol/L (NR1/NR2B; agonist mode): 1.53% | Antagonist JDIC-127 @5 μmol/L (NR1/NR2B; antagonist mode): 17.19% | effect of mutation on inhibitory potency of JDIC-127 (TRPC5 Q573A): significantly diminished | percentage of entries into the open arms, EPM (C57BL/6J mice): significantly increased
